The values below come from US20050124620A1, “Pharmaceutical compounds” (priority 2002, published 2005).

Bounds are passed on as bounds.

For orientation: inhibition means the relative decrease from the control value, in per cent. As a reminder, the IC50 is the midpoint of a concentration-inhibition curve. A low value points to greater potency.

α p38, sequence (Q16539 whole entry): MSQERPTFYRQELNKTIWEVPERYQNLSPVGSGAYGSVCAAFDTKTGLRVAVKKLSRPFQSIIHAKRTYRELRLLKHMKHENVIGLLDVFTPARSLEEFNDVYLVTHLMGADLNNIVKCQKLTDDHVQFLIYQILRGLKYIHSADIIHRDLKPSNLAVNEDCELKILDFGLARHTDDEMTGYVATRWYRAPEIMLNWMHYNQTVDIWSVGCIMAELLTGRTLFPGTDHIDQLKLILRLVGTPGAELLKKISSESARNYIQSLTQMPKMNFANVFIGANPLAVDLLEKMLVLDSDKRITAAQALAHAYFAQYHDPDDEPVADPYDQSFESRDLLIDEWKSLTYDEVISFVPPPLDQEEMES

One test has as its target α p38 (Homo sapiens, UniProt Q16539). Put plainly: p38 MAP kinase inhibitory activity (33P-ATP / myelin basic protein filter assay). It is filed as biochemical. Conditions: @ 1 μM; read-out: percentage inhibition of the p38 activity. How it is done:
Compounds of the invention were tested for p38 MAP kinase inhibitory activity using the following protocol.
The reaction was allowed to proceed for fifty minutes before being stopped with an excess of ortho-phosphoric acid (30 μl at 2%). γ^33 P-ATP which remained unincorporated into the myelin basic protein was separated from phoshorylated MBP on a Mlipore (RTM) MAPH filter plate. The wells of the MAPH plate were wetted with 0.5% orthophosphoric acid, and then the results of the reaction were filtered with a Millipore vacuum filtration unit through the wells. Following filtration, the residue was washed twice with 200 μl of 0.5% orthophosphoric acid. Once the filters had dried, […] of Microscint 20™ scintillant was added, and then counted on a Packard Topcount™ counter for 30 seconds. The percentage inhibition of the p38 activity was calculated and plotted in order to determine the concentration of the test compound required to inhibit 50% of the p38 activity (IC50).
As to `O=C(Nc1ccc2[nH]cc(CCc3ccncc3)c2c1)c1ccc(N2CCCC2=O)cc1` [Example 26, 5-(4-(2-oxo-pyrrolidin-1-yl)benzamido)-3-(2-(4-pyridyl)ethyl)indole], the inhibition at 1 µM was determined as 28%.

Still in this test, the particulars now being: @ 3 μM; read-out: percentage inhibition of the p38 activity.
Turning to `O=C(Nc1ccc2c(CCc3ccncc3)c[nH]c2c1)c1cc(F)cc(N2CCOCC2)c1` [Example 15B, 6-(3-Fluoro-5-(4-morpholino)benzamido)-3-(2-(4-pyridyl)ethyl)indole], the inhibition at 3 µM was found to be 36%.

The test is the same for the next values; noted with them: @ 300 μM; read-out: percentage inhibition of the p38 activity.
As for `O=C1c2ccccc2C(=O)N1c1ccc2[nH]cc(CCc3ccncc3)c2c1` [Example 24B, 5-(1-Phthalimido)-3-(2-(4-pyridyl)ethyl)indole], the inhibition at 300 µM was found to be 25%.

Staying with this test, now noted: @ 1 mM; read-out: percentage inhibition of the p38 activity.
Consider `Nc1ccc2[nH]cc(CCc3ccncc3)c2c1` [Example 20A, 5-Amino-3-(2-(4-pyridyl)ethyl)indole], for which the inhibition at 1000 µM amounted to 23%.

The same test, now with this note: MKK6-activated α p38, MBP substrate, 50 min reaction.
`Clc1ccc2[nH]cc(CCc3ccncc3)c2c1` [Example 5, 5-Chloro-3-(2-(4-pyridyl)ethyl)indole] registered an IC50 of 122 µM.

`c1ccc2c(CCc3ccncc3)c[nH]c2c1` [Example 1, 3-(2-(4-Pyridyl)ethyl)indole] gave an IC50 of 33 µM.

`c1ccc2c(c1)ccn2CCc1ccncc1` [Example 19, 1-(2-(4-pyridyl)ethyl)indole] came in with an IC50 of 200 µM.

As for `Cc1cccc2[nH]cc(CCc3ccncc3)c12` [Example 9, 4-Methyl-3-(2-(4-pyridyl)ethyl)indole], the IC50 was found to be 111 µM.

`Cc1ccc2[nH]cc(CCc3ccncc3)c2c1` [Example 4, 5-Methyl-3-(2-(4-pridyl)ethyl)indole] came in with a half-maximal inhibitory concentration (IC50) of 250 µM.

`O=C(Nc1ccc2[nH]cc(CCc3ccncc3)c2c1)c1cccc(C(F)(F)F)c1` [Example 17B] came in with an IC50 of 4 µM. Against the preceding compound, the IC50 is about 62-fold lower.

`Cc1cccc2c(CCc3ccncc3)c[nH]c12` [Example 10, 7-Methyl-3-(2-(4-pyridyl)ethyl)indole]: inhibition was half-maximal at 35 µM (IC50).

`CC(=O)Nc1ccc2[nH]cc(CCc3ccncc3)c2c1` [Example 7, 5-Acetamido-3-(2-(4-pyridyl)ethyl)indole] registered an IC50 of 650 µM. Against the preceding compound, the IC50 is about 19-fold higher.

The compound `O=C(Nc1ccc2[nH]cc(CCc3ccncc3)c2c1)c1ccccc1` [Example 13B, 5-Benzamido-3-(2-(pyrid-4-yl)ethyl)indole] returned an IC50 of 40 µM. This IC50 lies about 16-fold lower than the previous one.

Compound `c1ccc2c(CCc3ccncn3)c[nH]c2c1` [Example 31, 3-(2-(4-Pyrimidinyl)ethyl)indole] came in with an IC50 of 715 µM.

The compound `C[C@@H](Nc1nccc(CCc2c[nH]c3ccccc23)n1)c1ccccc1` [Example 30, 3-(2-(2-((R)-(+)-α-methylbenzylamino)-4-pyrimidinyl)ethyl)idole] had an IC50 of 15 µM.

For `CC(C)(CO)Nc1nccc(CCc2c[nH]c3ccccc23)n1` [Example 28, 3-(2-(2-(3-Hydroxy-2-methyl-prop-2-ylamino)-4-pyrimidinyl)ethyl)indole], the IC50 is 1.5 µM.

On to `C[C@H](Nc1nccc(CCc2c[nH]c3ccccc23)n1)c1ccccc1` [Example 29, 3-(2-(2-((S)-(−)-α-methylbenzylamino)-4-pyrimidinyl)ethyl)indole], for which the IC50 was determined as 3 µM. Against the preceding compound, the IC50 is about 2-fold higher.

In turn, `O=C(Nc1ccc2[nH]cc(CCc3ccncc3)c2c1)c1cccc(OC(F)(F)F)c1` [Example 16B, 5-(3-Trifluoromethoxybenzamido)-3-(2-(4-pyridy)ethyl)indole] showed an IC50 of 2 µM.

`O=C(Nc1ccccc1)Nc1ccc2[nH]cc(CCc3ccncc3)c2c1` [Example 20B, 5-(Phenylcarbamoylamino)-3-(2-(4-pyridyl)ethyl)indole] came in with an IC50 of 28 µM.

Take `O=C(Nc1ccc2[nH]cc(CCc3ccncc3)c2c1)c1ccnc(N2CCOCC2)c1` [Example 23B, 5-(2-(4-Morpholino)isonicotinamido)-3-(2-(4-pyridyl)ethyl)indole]: the 50% inhibitory concentration (IC50) worked out at 1.3 µM.

`OCCNc1nccc(CCc2c[nH]c3ccccc23)n1` [Example 27]: the IC50 turned out to be 38 µM. Compared with the last compound, the IC50 is about 29-fold higher.

In turn, `O=C(Nc1ccc2c(ccn2CCc2ccncc2)c1)c1cc(F)cc(N2CCOCC2)c1` [Example 18B, 5-(3-Fluoro-5-(4-morpholino)benzamido)-1-(2-(4-pyridyl)ethyl)indole] gave an IC50 of 3 µM.

Consider `c1ccc(CCc2c[nH]c3ccccc23)nc1` [Example 3, 3-(2-(2-Pyridyl)ethyl)indole], for which half-maximal inhibition (IC50) required 820 µM.

Compound “3-(2-(4-Pyridyl)ethyl-7-azaindole [Example 12]” yielded an IC50 of 177 µM.

In turn, `O=[N+]([O-])c1ccc2[nH]cc(CCc3ccncc3)c2c1` [Example 6, 5-Nitro-3-(2-(4-pyridyl)ethyl)indole] registered a concentration for half-maximal inhibition (IC50) of 300 µM.

As to `Clc1nccc(CCc2c[nH]c3ccccc23)n1` [Example 22, 3-(2-(2-Chloro-4-pyrimidinyl)ethyl)indole], the IC50 came to 120 µM.

Compound `Fc1cccc2[nH]cc(CCc3ccncc3)c12` [Example 11, 4-Fluoro-3-(2-(4-pyridyl)ethyl)indole] gave an IC50 of 45 µM.

Turning to `Nc1ccc2ccn(CCc3ccncc3)c2c1` [Example 25A, 6-Amino-1-(2-(4-pyridyl)ethyl)indole], the IC50 is 475 µM.

With `Cn1cc(CCc2ccncc2)c2ccccc21` [Example 2, 1-Methyl-3-(2-(4-pyridyl)ethyl)indole], the IC50 was found to be 240 µM.

`Cc1[nH]c2ccccc2c1CCc1ccncc1` [Example 8, 2-Methyl-3-(2-(4-pyridyl)ethyl)indole] had an IC50 of 270 µM. This IC50 and that of the compound before are within 1.5-fold of each other.

Staying with this test, now noted: MKK6-activated α p38, MBP substrate; unit stated in cell.
On to `O=C(Nc1ccc2[nH]cc(CCc3ccncc3)c2c1)c1cc(F)cc(N2CCOCC2)c1` [Example 14B, 5-(3-Fluoro-5-(4-morpholino)benzamido)-3-(2-(4-pyridyl)ethyl)indole], for which the IC50 came out at 0.5 µM.

`CC(C)(C)c1cc(NC(=O)Nc2ccc3[nH]cc(CCc4ccncc4)c3c2)n(-c2ccccc2)n1` [Example 32, 5-(3-tert-Butyl-1-phenylpyrazol-5-ylcarbamoylamino)-3-(2-(4-pyridyl)ethyl)indole] returned an IC50 of 0.145 µM.

Regarding `Cc1ccc(S(=O)(=O)n2cc(CCc3cccnc3)c3ccccc32)cc1` [Example 34, 1-[(4-Methylphenyl)sulphonyl]-3-(2-(3-pridyl)ethyl)indole], the IC50 was over 1000 µM.

For the next test, the system named is THP-1 cells. Put plainly: Inhibition of LPS-induced TNF-α production in THP-1 cells, in vitro assay. The format is cell-based. As to conditions: Homo sapiens; PMA-treated THP-1 cells, 1 μg/ml LPS, 6 h, TNF-α by ELISA. How it is done: The ability of the compounds of this invention to inhibit the TNF-α release was determined using a rninor modification of the methods described in Rawlins P., et al., “Inhibition of endotoxin-induced TNF-α production in macrophages by 5Z-7-oxo-zeaenol and other fungal resorcyclic acid lactones,” International J. of Immunopharmacology, 21, 799, (1999).
THP-1 cells, human monocytic leukaemic cell line, ECACC) were maintained in culture medium [RPMI 1640 (Invitrogen) and 2 mM L-Glutamine supplemented with 10% foetal bovine serum (Invitrogen)] at approximately 37° C. in humidified 5% CO2 in stationary culture. TBP-1 cells were suspended in culture medium containing 50 ng/ml PMA (SIGMA), seeded into a 96-well tissue culture plate (IWAKI) at 1×10^5 cells/well (100 μl/well) and incubated as described above for approximately 48 h. The medium was then aspirated, the wells washed twice in Phosphate Buffered Saline and 1 μg/ml LPS (SIGMA) in culture medium was added (200 μl/well).
Test compounds were reconstituted in DMSO (SIGMA) and then diluted with the culture medium such that the final DMSO concentration was 0.1%. […] Culture supernatants were collected and the amount of human TNF-α present was determined by ELISA (R&D Systems) performed according to the manufacturer's instructions. […]
For orientation: In an ELISA, binding on a coated surface is turned into a signal by an enzyme label.
For `O=C(Nc1ccc2[nH]cc(CCc3ccncc3)c2c1)c1cc(F)cc(N2CCOCC2)c1` [Example 14B, 5-(3-Fluoro-5-(4-morpholino)benzamido)-3-(2-(4-pyridyl)ethyl)indole], the IC50 is 0.53 µM. This lies in the sub-micromolar range.
